Measurements from patent US9221826B2, “Pyrrolopyridazine JAK3 inhibitors and their use for the treatment of inflammatory and autoimmune diseases” (Bristol-Myers Squibb Company, priority 2011, dated 2015).

How the values were obtained:
Type in all cases: biochemical
JAK3 enzyme = target: T1, JAK3 enzyme (Homo sapiens, UniProt P52333); assay: JAK3 Kinase Assay Protocol (Filter); settings: 33P γ-ATP, 8 μM ATP, CSKtide substrate, read-out: LLE_JAK3_FB (IC50)
T1 sequence (P52333 1-1124): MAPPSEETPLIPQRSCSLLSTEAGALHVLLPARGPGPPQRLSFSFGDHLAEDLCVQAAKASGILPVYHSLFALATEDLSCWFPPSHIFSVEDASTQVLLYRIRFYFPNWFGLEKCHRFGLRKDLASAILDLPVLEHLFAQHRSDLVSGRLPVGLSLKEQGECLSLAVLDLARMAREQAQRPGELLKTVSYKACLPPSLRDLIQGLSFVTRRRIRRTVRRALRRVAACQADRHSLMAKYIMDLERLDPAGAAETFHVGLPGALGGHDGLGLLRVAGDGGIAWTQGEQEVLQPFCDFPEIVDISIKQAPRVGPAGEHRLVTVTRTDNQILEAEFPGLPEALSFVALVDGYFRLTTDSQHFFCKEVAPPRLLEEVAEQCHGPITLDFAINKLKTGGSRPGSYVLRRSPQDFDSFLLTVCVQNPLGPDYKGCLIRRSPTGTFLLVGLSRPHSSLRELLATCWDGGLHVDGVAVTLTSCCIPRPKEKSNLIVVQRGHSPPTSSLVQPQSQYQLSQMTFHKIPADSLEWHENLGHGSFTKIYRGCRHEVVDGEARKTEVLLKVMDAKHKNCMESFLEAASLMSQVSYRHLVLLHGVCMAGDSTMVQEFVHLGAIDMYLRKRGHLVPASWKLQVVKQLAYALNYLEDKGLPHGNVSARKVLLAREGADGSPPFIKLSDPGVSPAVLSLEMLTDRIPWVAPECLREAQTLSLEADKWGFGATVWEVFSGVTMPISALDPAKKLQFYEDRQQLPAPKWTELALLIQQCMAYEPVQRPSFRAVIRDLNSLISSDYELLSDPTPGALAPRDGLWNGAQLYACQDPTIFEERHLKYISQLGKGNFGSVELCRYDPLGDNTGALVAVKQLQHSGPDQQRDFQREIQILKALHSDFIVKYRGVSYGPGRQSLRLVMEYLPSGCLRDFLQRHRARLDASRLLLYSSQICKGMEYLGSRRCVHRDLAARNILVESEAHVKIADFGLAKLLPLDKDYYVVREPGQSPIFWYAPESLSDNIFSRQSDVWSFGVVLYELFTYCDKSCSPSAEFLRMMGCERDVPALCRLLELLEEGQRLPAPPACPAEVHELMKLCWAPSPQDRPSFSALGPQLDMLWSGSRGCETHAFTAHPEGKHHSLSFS
Experimental: Kinase reactions consisted of 5 ng of JAK3 enzyme, 30 uM CSKtide substrate, 0.2 μCi ^33P γ-ATP, 8 μM ATP in 30 μl kinase buffer (50 mM Hepes, pH 8.0, 10 mM MgCl2, 1 mM EGTA, 2 mM DTT). Reactions were incubated for 30 minutes at room temperature and stopped by the addition of cold trichloroacetic acid (TCA) to a final concentration of 15%. TCA precipitates were collected onto 384 well phosphocellulose filters (Millipore) using a Platemate to transfer the reaction mixture, washed on an EMBLA plate washer and the filters were quantitated using a TopCount 384-well liquid scintillation counter. […] Compounds were dissolved at 10 mM in dimethylsulfoxide (DMSO) and evaluated at six concentrations, each in triplicate. The final concentration of DMSO in the assay equaled 2%. IC50 values were derived by non-linear regression analysis.

GST-JAK3 enzyme = target: T2, GST-JAK3 enzyme (Homo sapiens, UniProt P52333); assay: JAK3 Kinase Assay Protocol (Caliper); settings: Caliper LabChip assay, ATP 8 μM, fluoresceinated peptide; read-out: LLE_JAK3_CAL (IC50)
T2 sequence (P52333 1-1124): T1 sequence (P52333 1-1124)
Experimental: The assay reactions were performed in U-bottom 384-well plates. […] The reaction was initiated by the combination of GST-JAK3 enzyme with substrates and test compounds. The reactions were incubated at room temperature for 3 hours and terminated by adding 60 μl of 35 mM EDTA to each sample. Each reaction mixture was analyzed on the Caliper LabChip 3000 (Caliper, Hopkinton, Mass.) by electrophoretic separation of the fluorescent substrate and phosphorylated product. […] Compounds were dissolved at 10 mM in dimethylsulfoxide (DMSO) and evaluated at eleven concentrations. IC50 values were derived by non-linear regression analysis.

GST-JAK1 enzyme = GST-JAK1 enzyme (Homo sapiens, UniProt P23458); assay: JAK1 Kinase Assay Protocol; settings: Caliper LabChip assay, ATP 100 μM, fluoresceinated peptide; read-out: LLE_JAK1 (IC50)
Experimental: The assay reactions were performed in U-bottom 384-well plates. The final assay volume was 30 μl prepared from 15 μl additions of enzyme and substrates (fluoresceinated peptide and ATP) and test compounds in assay buffer (20 mM HEPES pH 7.4, 10 mM MgCl2, 25 mM beta-glycerol phosphate, 0.015% Brij35 and 4 mM DTT). The reaction was initiated by the combination of GST-JAK1 enzyme with substrates and test compounds. The reactions were incubated at room temperature for 3 hours and terminated by adding 60 μl of 35 mM EDTA to each sample. Each reaction mixture was analyzed on the Caliper LabChip 3000 (Caliper, Hopkinton, Mass.) by electrophoretic separation of the fluorescent substrate and phosphorylated product. […] The final concentration of reagents in the assays was: ATP, 100 μM; fluoresceinated peptide, 1.5 μM; GST-JAK1, 12.5 nM; and DMSO, 1.6%. […] Compounds were dissolved at 10 mM in dimethylsulfoxide (DMSO) and evaluated at eleven concentrations. IC50 values were derived by non-linear regression analysis.

Sequence of GST-JAK1 enzyme (P23458 whole entry): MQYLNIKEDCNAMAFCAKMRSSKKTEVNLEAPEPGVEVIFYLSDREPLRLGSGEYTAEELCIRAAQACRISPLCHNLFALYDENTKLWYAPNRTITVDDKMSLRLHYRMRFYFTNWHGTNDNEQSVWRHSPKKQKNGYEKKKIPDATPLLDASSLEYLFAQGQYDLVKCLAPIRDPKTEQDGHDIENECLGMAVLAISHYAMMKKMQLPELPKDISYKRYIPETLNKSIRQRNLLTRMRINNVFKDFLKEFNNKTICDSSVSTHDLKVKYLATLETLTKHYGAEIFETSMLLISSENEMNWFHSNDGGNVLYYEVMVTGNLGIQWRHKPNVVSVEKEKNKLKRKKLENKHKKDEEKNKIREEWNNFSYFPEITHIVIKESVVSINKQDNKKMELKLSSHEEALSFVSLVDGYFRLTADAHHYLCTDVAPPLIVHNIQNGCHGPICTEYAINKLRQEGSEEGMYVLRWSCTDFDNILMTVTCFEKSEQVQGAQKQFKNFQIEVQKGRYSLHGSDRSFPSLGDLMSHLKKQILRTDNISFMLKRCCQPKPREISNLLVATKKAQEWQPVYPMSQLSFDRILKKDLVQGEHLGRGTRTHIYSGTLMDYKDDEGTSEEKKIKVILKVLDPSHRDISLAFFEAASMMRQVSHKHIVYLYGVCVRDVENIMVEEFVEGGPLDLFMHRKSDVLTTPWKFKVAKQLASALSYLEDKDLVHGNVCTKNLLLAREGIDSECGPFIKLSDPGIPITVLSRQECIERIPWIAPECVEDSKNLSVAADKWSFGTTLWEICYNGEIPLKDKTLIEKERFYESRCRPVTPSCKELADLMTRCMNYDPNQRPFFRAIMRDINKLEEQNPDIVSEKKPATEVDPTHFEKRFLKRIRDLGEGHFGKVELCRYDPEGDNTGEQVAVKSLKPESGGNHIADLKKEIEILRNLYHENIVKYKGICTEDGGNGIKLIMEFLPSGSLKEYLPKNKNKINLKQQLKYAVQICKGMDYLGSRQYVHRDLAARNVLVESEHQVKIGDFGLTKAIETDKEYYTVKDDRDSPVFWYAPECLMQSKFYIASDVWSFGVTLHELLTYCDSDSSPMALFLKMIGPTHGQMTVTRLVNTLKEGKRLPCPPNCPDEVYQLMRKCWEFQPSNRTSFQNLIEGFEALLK

| IC50 (JAK3 enzyme) [nM] | IC50 (GST-JAK3 enzyme) [nM] | IC50 (GST-JAK1 enzyme) [nM] | Compound |
| --- | --- | --- | --- |
| 13.5 | 60.9 | 1200 | COc1ccc(-c2cc3c(N[C@H](C)c4ccccc4F)c(C(N)=O)cnn3c2)cn1 [Example 180, 4-(((1R)-1-(2-fluorophenyl)ethyl)amino)-6-(6-methoxy-3-pyridinyl)pyrrolo[1,2-b]pyridazine-3-carboxamide] |
| 11 | 27.3 | 37.3 | CCCNc1c(C(N)=O)cnn2cc(-c3ccccc3)cc12 [Example 183, 6-phenyl-4-(propylamino)pyrrolo[1,2-b]pyridazine-3-carboxamide] |
| 19.1 | 8.5 | 21.5 | NC(=O)c1cnn2cc(-c3ccccc3)cc2c1NCC1(CO)CC1 [Example 189, 4-((1-(hydroxymethyl)cyclopropyl)methylamino)-6-phenylpyrrolo[1,2-b]pyridazine-3-carboxamide] |
| 88 | 40.6 | 72.3 | CNc1c(C(N)=O)cnn2cc(-c3cccc(CC#N)c3)cc12 [Example 191, 6-(3-(cyanomethyl)phenyl)-4-(methylamino)pyrrolo[1,2-b]pyridazine-3-carboxamide] |
| 1.7 | 2.1 | 13 | C[C@@H](Nc1c(C(N)=O)cnn2cc(-c3cnc(N)nc3)cc12)C1CC1 [Example 192, (R)-6-(2-aminopyrimidin-5-yl)-4-(1-cyclopropylethylamino)pyrrolo[1,2-b]pyridazine-3-carboxamide] |
| 1.3 | 1 | 2.8 | C[C@@H](Nc1c(C(N)=O)cnn2cc(-c3ccccc3)cc12)C(C)(C)C(N)=O [Example 194, (R)-4-(4-amino-3,3-dimethyl-4-oxobutan-2-ylamino)-6-phenylpyrrolo[1,2-b]-pyridazine-3-carboxamide] |
| 5.3 | 8.4 | 73.7 | CNc1nnc(-c2cc3c(N[C@H](C)C4CC4)c(C(N)=O)cnn3c2)o1 [Example 195, (R)-4-(1-cyclopropylethylamino)-6-(5-(methylamino)-1,3,4-oxadiazol-2-yl)pyrrolo[1,2-b]pyridazine-3-carboxamide] |
| 1.1 | 2.2 | 4.8 | C[C@@H](Nc1c(C(N)=O)cnn2cc(-c3ccc(N)nc3)cc12)C1CC1 [Example 200] |
| 1.8 | 1.2 | 3.8 | CNC(=O)c1ccc(-c2cc3c(N[C@H](C)C4CC4)c(C(N)=O)cnn3c2)cn1 [Example 202] |
| 7.9 | 5.4 | 110 | C[C@@H](Nc1c(C(N)=O)cnn2cc(-c3cnc(NCCN(C)C)nc3)cc12)C1CC1 [Example 205] |
| 2.3 | 1.8 | 100 | C[C@@H](Nc1c(C(N)=O)cnn2cc(-c3nnc(N4CCN(C)CC4)o3)cc12)C1(C)CC1 [Example 241, (R)-4-((1-(1-methylcyclopropyl)ethyl)amino)-6-(5-(4-methylpiperazin-1-yl)-1,3,4-oxadiazol-2-yl)pyrrolo[1,2-b]pyridazine-3-carboxamide] |

| Compound | IC50 (JAK3 enzyme) [nM] | IC50 (GST-JAK3 enzyme) [nM] | IC50 (GST-JAK1 enzyme) [nM] |
| --- | --- | --- | --- |
| C[C@@H](O)[C@@H](CO)Nc1c(C(N)=O)cnn2cc(-c3ccccc3)cc12 [Example 196, 4-((2R,3R)-1,3-dihydroxybutan-2-ylamino)-6-phenylpyrrolo[1,2-b]pyridazine-3-carboxamide] | 1.3 | 3 | 5.8 |
